Reference: patent US6916918B2, “Human glandular kallikrein enhancer, vectors comprising the enhancer and methods of use thereof” (priority 1997, dated 2005)

Test system: LNCaP cells transfected with CN390
Assay: steroid hormone specificity of the 1.17-kb hKLK2 enhancer, luciferase reporter
Format: cell-based, human
Settings: FIG. 14
Procedure: To assess the androgen specificity of the hKLK2 enhancer, LNCaP cells transfected with CN390 (1.17-kb “full enhancer activity” hKLK2 enhancer/minimal hKLK2 promoter) were treated with various steroid hormones.

SMILES | induction of luciferase activity by steroid hormone vs cells not treated with hormones
C[C@@H]1C[C@H]2[C@@H]3CCC4=CC(=O)C=C[C@]4(C)[C@@]3(F)[C@@H](O)C[C@]2(C)[C@@]1(O)C(=O)CO [DEX] | little or no inducibility
CC/C(=C(/CC)c1ccc(O)cc1)c1ccc(O)cc1 [DES] | little or no inducibility
C[C@]12CCC(=O)C[C@@H]1CC[C@@H]1[C@@H]2CC[C@]2(C)[C@@H](O)CC[C@@H]12 [DHT, dihydrotestosterone] | marked increases in luciferase activity
C[C@]1(O)CC[C@H]2[C@@H]3CCC4=CC(=O)CCC4=C3C=C[C@@]21C [R1881, methyl trienolone] | marked increases in luciferase activity
